Results on 17 compounds are retold here after PMC5817852 (The Open Medicinal Chemistry Journal, 2018).

Data set [1] relates to MDA-MB-231 breast cancer cell line. Nature of the data set: qHTS cell viability screen (Cell Titer Glo), MDA-MB-231. Format: cell-based.
Data set [2] has as its system HT29 colorectal carcinoma. Nature of the data set: qHTS cell viability screen (Cell Titer Glo), HT29. Format: cell-based.
For data set [3], the system named is BJ cells, normal human foreskin fibroblast cell line. Nature of the data set: BJ cell cytotoxicity counter screen. From the text:
(§1) Most analogs in the presented series are lipophilic while also containing a positively charged amine. Lipophilic basic amines can accumulate in cell membranes if their lipophilic atom groups form favorable non-polar contacts with lipid chains while their charged amine is interacting with fatty acid head groups. Such association with lipids can lead to cytotoxicity through membrane destabilization. Therefore, we evaluated a number of representative compounds against BJ cells, a normal human foreskin fibroblast cell line, where cytotoxicity was determined at 10 µM drug concentration, as described previously.
(§2) minimum locked at 0 and 100 respectively.
(§3) children with ALL in relapse.
(§4) foreskin fibroblast cell line (BJ).
(§5) Table 2. […] SSA: Sulindac sulfide

Data set [4] concerns NALM16 cell line (acute lymphoblastic leukemia). In words: Additional cancer cell line panel, NALM16. Format: cell-based, human. The conditions noted are these: confidence intervals in parentheses, NA: not active.
Data set [5] relates to RAJI cells (Burkitt's leukaemia/lymphoma). Nature of the data set: Additional cancer cell line panel, RAJI. The class given is cell-based. The conditions noted are these: confidence intervals in parentheses, NA: not active.
In data set [6] the test system is PC3 prostate cancer cell line. Nature of the data set: qHTS cell viability screen (Cell Titer Glo), PC3. Format: cell-based. The conditions noted are these: for CC50: read-out: CC50 PC3.
Data set [7] concerns Acute T cell leukemia Jurkat e6-1 cells (JURKT). In words: Additional cancer cell line panel, JURKT. Format: cell-based. The conditions noted are these: confidence intervals in parentheses, NA: not active.
Data set [8] deals with REH cells (precursor B-cell ALL). In words: Additional cancer cell line panel, REH. The conditions noted are these: read-out: EC50 REH. Format: cell-based, human.
Data set [9] deals with Cell line 697 (ALL in relapse). Nature of the data set: Additional cancer cell line panel, 697. The class given is cell-based, human. Particulars: confidence intervals in parentheses, NA: not active.
Source text: as §1, §2, §3, §4, §5

Data set [10] is described as follows: BJ cell cytotoxicity counter screen. Particulars: human.
Source text: as §1, §2, §3, §4, §5

The next data set concerns COX-2. Details: method as in PMID 19470791. Particulars: cited from earlier work.
Another data set relates to COX-1. Details: method as in PMID 19470791. The conditions noted are these: cited from earlier work.
[11] abbreviates: read-out: EC50 BJ (cytotoxicity), BJ normal human foreskin fibroblasts, confidence intervals in parentheses.
[12] abbreviates: confidence intervals in parentheses, NA: not active.
Where [13] appears, read: MDA-MB-231 breast, 96 hours, cell viability Cell Titer Glo, read-out: CC50 MDA-MB-231.
The mark [14] stands for this setting: HT29 colorectal carcinoma, 72 hours, cell viability Cell Titer Glo, read-out: CC50 HT29.
Setting [15] is: PC3 prostate, 72 hours, cell viability Cell Titer Glo.
[16] abbreviates: Homo sapiens, MDA-MB-231, 96 h, MDA-MB-231 breast, 96 hours, cell viability Cell Titer Glo, read-out: CC50 MDA-MB-231.
Setting [17] is: BJ cells (normal human foreskin fibroblast cell line).
Setting [18] is: 72 h, PC3 prostate, 72 hours, cell viability Cell Titer Glo.
The mark [19] stands for this setting: Homo sapiens, REH, confidence intervals in parentheses, NA: not active.
[20] abbreviates: Homo sapiens, HT-29, 72 h, HT29 colorectal carcinoma, 72 hours, cell viability Cell Titer Glo, read-out: CC50 HT29.

Read-outs that look alike come from different tables or passages of the source. Some results are limits rather than exact numbers.

For the compound “3,4,5-trimethoxybenzylidene-3-indenylmethyl-2-phenylacetamide [Compound 26]”, in data set [1] (versus SSA), the “increased anticancer activity in comparison with SSA, breast cancer cells” value is listed as 27 fold. The “increased anticancer activity in comparison with SSA, colon cancer cells” value in data set [2] (versus SSA) was 6-7 fold. Besides, the 50% effective concentration (EC50) in data set [3] (setting [11]) is more than 22.7 µM; in data set [4] it was 8.1 µM; in data set [5], 8.3 µM; in [7], 11 µM; in [8] (setting [12]) it was 19 µM; in data set [9], 15 µM. The “increased anticancer activity in comparison with SSA, prostate cancer cells” value in [6] (versus SSA) is given as 6-7 fold.

As to `CSc1ccc(/C=C2/C(C)=C(CCNCc3ccccc3)c3cc(F)ccc32)cc1` [Compound 7], the cytotoxic concentration (CC50) in data set [1] (setting [13]) is 46.5 ± 1.92 µM; in data set [2] (setting [14]) it was 21.8 ± 2.29 µM; in data set [6] (setting [15]), more than 50 µM. In addition, in data set [3] (setting [11]), the concentration for a half-maximal effect (EC50) was more than 7.57 µM.

On to `CSc1ccc(/C=C2/C(C)=C(CCNCc3ccco3)c3cc(F)ccc32)cc1` [Compound 8], for which the CC50 in data set [1] (setting [13]) was found to be 7.77 ± 0.54 µM; in data set [2] (setting [14]), 4.27 ± 0.33 µM; in data set [6] (setting [15]), 9.94 ± 0.77 µM. Moreover, in data set [3] (setting [11]), the EC50 was more than 7.57 µM.

Take `CSc1ccc(/C=C2/C(C)=C(CCNCCN3CCCCC3)c3cc(F)ccc32)cc1` [Compound 9]: the CC50 was determined as 3.73 ± 0.21 µM in [1] (setting [13]), 1.81 ± 0.06 µM in data set [2] (setting [14]) and 4.78 ± 0.2 µM in data set [6] (setting [15]). Also, the EC50 in data set [3] (setting [11]) is more than 7.57 µM.

`CSc1ccc(/C=C2/C(C)=C(CNC(=O)CN)c3cc(F)ccc32)cc1` [Compound 21]: the figures for the CC50 in [1] (setting [13]), in data set [2] (setting [14]) and in data set [6] (setting [15]) were 7.3 ± 0.62 µM, 5.49 ± 0.21 µM and 7.27 ± 0.31 µM, respectively. The EC50 in [3] (setting [11]) was more than 22.7 µM.

Regarding `CSc1ccc(/C=C2/C(C)=C(CNC(=O)[C@@H](N)CC(C)C)c3cc(F)ccc32)cc1` [Compound 23], the CC50 in data set [1] (setting [16]) was less than 10 µM; in data set [1] (setting [13]), 6.7 ± 0.71 µM; in data set [6] (setting [18]) it was less than 10 µM; in data set [6] (setting [15]) it was 6.21 ± 0.49 µM. For the same compound, the EC50 in [10] (setting [17]) came out at 16.4 µM; in [4] (Homo sapiens, NALM16) it was 30 µM; in data set [8] (setting [19]), 16 µM.

On to `CSc1ccc(/C=C2/C(C)=C(CNC(=O)[C@@H](N)C(C)C)c3cc(F)ccc32)cc1` [Compound 24], for which the melting point was in the range of 133 to 135 °C. Also, in data set [1] (setting [16]), the CC50 was less than 10 µM. Moreover, the CC50 in [1] (setting [13]) came to 6.81 ± 0.63 µM. The compound also yielded an EC50 in data set [10] (setting [17]) of 16.7 µM. The EC50 in [5] (Homo sapiens, Raji) came to 39 µM. In addition, in [6] (setting [18]), the half-maximal cytotoxic concentration (CC50) is less than 10 µM. Also, the CC50 in data set [6] (setting [15]) stood at 5.16 ± 0.5 µM. Besides, the EC50 in data set [7] (Homo sapiens, Jurkat E6.1) came out at 15 µM. The EC50 in [8] (setting [19]) was determined as 14 µM. In addition, in [9] (Homo sapiens), the EC50 worked out at 16 µM.

Take `CSc1ccc(/C=C2/C(C)=C(CNC(=O)[C@@H]3CCCN3)c3cc(F)ccc32)cc1` [Compound 25]: the figures for the half-maximal cytotoxic concentration (CC50) in data set [1] (setting [16]), in data set [2] (setting [20]) and in [6] (setting [18]) were 4.35 ± 0.19 µM, 3.15 ± 0.17 µM and 6.66 ± 0.42 µM, respectively. Also, the EC50 in data set [10] (setting [17]) was more than 22.7 µM; in data set [8] (setting [19]), 150 µM.

On to `COc1cc(/C=C2/C(C)=C(CNC(=O)CN)c3cc(F)ccc32)cc(OC)c1OC` [Compound 29], for which the half-maximal cytotoxic concentration (CC50) in data set [1] (setting [13]) was found to be 9.92 ± 2.13 µM; in data set [2] (setting [14]), 8.51 ± 1.7 µM; in data set [6] (setting [15]), 17.9 ± 2.08 µM. The EC50 is more than 22.7 µM in data set [3] (setting [11]) and 230 µM in data set [4].

On to `COc1cc(/C=C2/C(C)=C(CNC(=O)[C@@H](N)CO)c3cc(F)ccc32)cc(OC)c1OC` [Compound 30], for which the melting point lay in the range of 118 to 120 °C. Besides, the half-maximal cytotoxic concentration (CC50) in [1] (setting [16]) is 11.9 ± 2.27 µM. Moreover, in [2] (setting [20]), the 50% cytotoxic concentration (CC50) is 11.1 ± 1.35 µM. Also, the EC50 in data set [10] (setting [17]) was more than 22.7 µM. Moreover, the 50% cytotoxic concentration (CC50) in data set [6] (setting [18]) is 26.5 ± 6.01 µM. In addition, the EC50 in data set [8] (setting [19]) came to 53 µM.

As to `COc1cc(/C=C2/C(C)=C(CNC(=O)[C@@H](N)CC(C)C)c3cc(F)ccc32)cc(OC)c1OC` [Compound 31], the CC50 in data set [1] (Homo sapiens, MDA-MB-231, 96 h, read-out: CC50 MDA-MB-231) came out at 8.87 ± 1.38 µM; in data set [2] (Homo sapiens, HT-29, 72 h, read-out: CC50 HT29) it was 5.21 ± 0.39 µM; in [6] (72 h) it was 12 ± 1.47 µM. In addition, the EC50 is more than 22.7 µM in [10] and 16 µM in [8] (Homo sapiens, REH).

Take `COc1cc(/C=C2/C(C)=C(CNC(=O)[C@@H](N)C(C)C)c3cc(F)ccc32)cc(OC)c1OC` [Compound 32]: the CC50 is less than 10 µM in data set [1] (setting [16]), 7.3 ± 0.73 µM in data set [1] (setting [13]), less than 10 µM in data set [6] (setting [18]) and 8.11 ± 0.41 µM in data set [6] (setting [15]). The half-maximal effective concentration (EC50) in data set [10] (setting [17]) is more than 22.7 µM; in data set [5] (Homo sapiens, Raji) it was 110 µM; in data set [8] (setting [19]), 21 µM.

`COc1cc(/C=C2/C(C)=C(CNC(=O)[C@@H]3CCCN3)c3cc(F)ccc32)cc(OC)c1OC` [Compound 33]: the melting point lay in the range of 64 to 66 °C. Moreover, in data set [1] (setting [16]), the CC50 turned out to be 8.2 ± 0.99 µM. Further, the CC50 in [2] (setting [20]) amounted to 5.67 ± 1.67 µM. The compound further displayed an EC50 in data set [10] (setting [17]) of more than 22.7 µM. For the same compound, the CC50 in [6] (setting [18]) amounted to 11.9 ± 1.56 µM. The EC50 in data set [7] (Homo sapiens, Jurkat E6.1) came out at 33 µM. For the same compound, the EC50 in data set [8] (setting [19]) was found to be 38 µM.

Turning to `CSc1ccc(/C=C2/C(C)=C(CNS(C)(=O)=O)c3cc(F)ccc32)cc1` [Compound 34], the melting point fell in the range of 159 to 160 °C. In [1] (setting [16]), the CC50 came out at 9.06 ± 2.26 µM. Besides, the CC50 in [2] (setting [20]) amounted to 7.43 ± 0.48 µM. In [10] (setting [17]), this compound yielded an EC50 of more than 22.7 µM. The CC50 in [6] (setting [18]) amounted to 20.2 ± 3.2 µM.

In the case of `CSc1ccc(/C=C2/C(C)=C(CN(Cc3ccncc3)Cc3ccncc3)c3cc(F)ccc32)cc1` [Compound 49], the CC50 in data set [1] was found to be 9.5 ± 2.14 µM; in [2], 10.8 ± 1.84 µM; in [6] (setting [15]) it was 12.7 ± 1.44 µM. In addition, the EC50 in data set [3] was more than 22.7 µM; in data set [4] it was 0.051 µM.

Take `COc1cc(/C=C2/C(C)=C(CN(Cc3ccncc3)Cc3ccncc3)c3cc(F)ccc32)cc(OC)c1OC` [Compound 56]: the half-maximal effective concentration (EC50) is more than 22.7 µM in [3], 32 µM in data set [4], 58 µM in [5] and 32 µM in data set [8] (setting [12]). Moreover, the CC50 in data set [6] (setting [15]) was 9.09 ± 0.87 µM.

`CSc1ccc(/C=C2/C(C)=C(CC(=O)NCCN(C)C)c3cc(F)ccc32)cc1` [SSA, Sulindac sulfide amide, reference compound]: in the data set on COX-2, the “activity against COX-2” value is “no activity”. The CC50 is 2.67 ± 0.08 µM in data set [1] (setting [16]), 0.65 ± 0.03 µM in data set [2] (setting [20]) and 3.12 ± 0.15 µM in data set [6] (setting [18]). In data set [3] (setting [11]), the EC50 was more than 7.57 µM. The “activity against COX-1” value in the data set on COX-1 is “no activity”.
